Here are results for eleven molecules from PubChem BioAssay (NCI).

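Interpolation was linear, between the two tested concentrations surrounding the appropriate level; five concentrations were tested over 48 hours in 96-well plates. TGI: concentration producing complete growth inhibition.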 A value given as a limit tells only on which side of the number the result lay.

Experiment in all cases: growth of human tumour cells (NCI), 48 h
In test [1] the test system is MDA-MB-435.
In test [2] the test system is HL-60(TB) leukemia.
For test [3], the system named is NCI-H522 lung.
In test [4] the test system is SW-620 colon.
In test [5] the test system is EKVX NSCLC.
Test [6] concerns SF-539 CNS.
For test [7], the system named is SR leukemia.
For test [8], the system named is A549 NSCLC.
Test [9] concerns K-562 leukemia.
Test [10] relates to SNB-19 CNS.
The test system of test [11] is SNB-75 CNS.

In the case of `CCOC(=O)OC1(c2ccccc2)CCN(C)CC1`, the TGI in [1], in test [2], in test [3], in test [4], in [5] and in [6] was over 100 µM each time. The TGI in [7], in test [8], in test [9], in [10] and in test [11] was over 100 µM each time.

For the molecule `CC(=O)Oc1ccc2c(c1)O/C(=C\c1ccc(O)cc1)C2=O`, the TGI in test [1], in test [2], in [3], in test [4], in test [5] and in test [6] was over 100 µM throughout. Further, the TGI in test [7], in test [8], in [9], in [10] and in test [11] was over 100 µM in each case.

As for `O=C1c2cccnc2C(=O)c2c1nc1ccccc1c2-c1ccc2c3c(nc4ccccc42)C(=O)c2cccnc2-c13`, the TGI in test [1] stood at 5.58 µM; in test [2], 5.42 µM; in [3], 4.58 µM; in test [4], 4.79 µM; in test [5], 6.69 µM; in test [6], 7.49 µM. Also, the TGI in test [7] is 0.34 µM; in test [8] it was 6.86 µM; in test [9] it was over 35.3 µM; in [10] it was 7.92 µM; in test [11], 8.28 µM.

Regarding `CCOC(=O)c1c(-c2ccc(OC)cc2)c(C#N)c(=S)n(C2OC(CO)C(O)C(O)C2O)c1C` (stereo unspecified), the TGI in [1], in test [2], in test [3], in test [4], in [5] and in [6] was over 100 µM in each case. Moreover, the TGI in [7], in [8], in [9], in test [10] and in [11] was over 100 µM throughout.

`COC(=O)Cc1c2n(c3ccccc13)C(=O)N1c3ccccc3C(CC(=O)OC)C21` (stereo unspecified): the TGI is over 100 µM in [1]; over 100 µM in test [2]; over 100 µM in test [3]; over 100 µM in test [4]; over 100 µM in test [5]; 49.4 µM in [6]. For the same molecule, the TGI was over 100 µM in [7]; over 100 µM in [8]; over 100 µM in test [9]; 49.8 µM in test [10]; 28.5 µM in test [11].

Take `COc1ccc2c(c1)CCC(CN1CCN(CCOC(c3ccccc3)c3ccccc3)CC1)C2O` (stereo unspecified): the TGI in test [1] stood at 32 µM; in test [2], 15.2 µM; in test [3], 31 µM; in test [4] it was 60.1 µM; in test [5], 24.4 µM; in test [6], 26.4 µM. The TGI in test [7] stood at 69.8 µM; in [8] it was 36 µM; in test [9], 44.1 µM; in test [10], 33.6 µM; in [11], 34.5 µM.

Turning to `O=C1C=CC(=O)c2c(O)c(N3CCN(c4ncccn4)CC3)c(Cl)c(O)c21`, the TGI was determined as 3.29 µM in [1]; 0.766 µM in test [2]; 4.42 µM in [3]; 2.97 µM in [4]; 24.8 µM in test [5]; 3.63 µM in test [6]. The TGI in test [7] came out at 37.8 µM; in test [8], 22.6 µM; in [9], 5.07 µM; in test [10] it was 18 µM; in test [11] it was 21.8 µM.

As for `O=C1CCCC2=C1CC1=C(CCCC1=O)N2c1ccc(-c2ccccc2)cc1`, the TGI in [1], in [2], in test [3], in test [4], in test [5] and in test [6] was over 100 µM in each case. The TGI in test [7] is over 100 µM; in test [8], over 100 µM; in test [9], over 100 µM; in test [10], over 100 µM; in test [11] it was over 67.5 µM.

For `C[C@@H](CCO)OC1OC(COC(=O)C(C)(C)C)C(OC(=O)C(C)(C)C)C(OC(=O)C(C)(C)C)C1OC(=O)C(C)(C)C` (stereo partly specified), the TGI was over 100 µM in test [1]; 62.5 µM in [2]; 95.7 µM in test [3]; over 100 µM in [4]; over 100 µM in [5]; over 100 µM in test [6]. Besides, the TGI in test [7], in test [8], in [9], in [10] and in test [11] was over 100 µM each time.

`O=c1n(CCCN2CCOCC2)nc2n1-c1ccc3ccccc3c1SC2`: the TGI is over 100 µM in [1]; 97.8 µM in test [2]; 52.3 µM in test [3]; over 100 µM in test [4]; over 100 µM in [5]; over 100 µM in test [6]. The TGI in test [7], in test [8], in [9], in test [10] and in test [11] was over 100 µM in each case.

Regarding `C[N+]1(CCCCN2c3ccccc3Sc3cc(N=[N+]=[N-])ccc32)CCN(C(=O)CCNC(=O)Cc2ccc(C(=O)c3ccccc3)cc2)CC1`, the TGI in test [1] is over 67.7 µM; in test [2], 35.5 µM; in [3] it was over 76.9 µM; in [4], over 74.6 µM; in test [5], over 81.5 µM; in test [6], over 76.9 µM. Moreover, the TGI in test [7] is 65.5 µM; in [8], over 72.6 µM; in test [9], over 57.7 µM; in [10] it was 66.7 µM; in [11] it was 43.3 µM.
